# Measurements as given in the supplement of paper PMC10307832.
# Legend:
# Assay in all cases: relative viability (nuclei count vs DMSO), 5 days (fraction); higher = more cells survive
# AZ628 + Crizotinib = compound: CC1=C(C=C(C=C1)NC(=O)C2=CC(=CC=C2)C(C)(C)C#N)NC3=CC4=C(C=C3)N=CN(C4=O)C [AZ628] + C[C@@H](Oc1cc(-c2cnn(C3CCNCC3)c2)cnc1N)c1c(Cl)ccc(F)c1Cl [Crizotinib] (partner 1 µM)
# Summary of the method: (§1)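 Medians of duplicate plates are given as relative viability. That measure is the nuclei count in treated wells divided by the count in vehicle wells. Counts were taken on 4× images of lung cancer cell lines in 1536-well plates, 5 days after pin-tool dosing the day after seeding with one drug alone or a fixed anchor-drug dose plus five library-drug doses (not always all listed) in √10 steps.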
# AZ628 + Decitabine = compound: CC1=C(C=C(C=C1)NC(=O)C2=CC(=CC=C2)C(C)(C)C#N)NC3=CC4=C(C=C3)N=CN(C4=O)C [AZ628] + Nc1ncn([C@H]2C[C@H](O)[C@@H](CO)O2)c(=O)n1 [Decitabine] (partner 2 µM)
# Summary of the method: as §1
# AZ628 + Vorinostat = compound: CC1=C(C=C(C=C1)NC(=O)C2=CC(=CC=C2)C(C)(C)C#N)NC3=CC4=C(C=C3)N=CN(C4=O)C [AZ628] + O=C(CCCCCCC(=O)Nc1ccccc1)NO [Vorinostat] (partner 1 µM)
# Summary of the method: as §1
# [1] = compound: C[As](C)SC[C@H](NC(=O)CC[C@H](N)C(=O)O)C(=O)NCC(=O)O [Darinaparsin] + O=C(CCCCCCC(=O)Nc1ccccc1)NO [Vorinostat] (partner 1 µM)
# Summary of the method: as §1
cell line,measurement,setting,value
EKVX,relative viability,AZ628 + Crizotinib; first compound 0.08 µM,1.16
same,relative viability,AZ628 + Crizotinib; first compound 0.253 µM,0.913
same,relative viability,AZ628 + Crizotinib; first compound 0.8 µM,1
same,relative viability,AZ628 + Crizotinib; first compound 2.53 µM,0.975
same,relative viability,AZ628 + Crizotinib; first compound 8 µM,0.751
same,relative viability,AZ628 + Decitabine; first compound 0.08 µM,0.367
same,relative viability,AZ628 + Decitabine; first compound 0.253 µM,0.369
same,relative viability,AZ628 + Decitabine; first compound 0.8 µM,0.401
same,relative viability,AZ628 + Decitabine; first compound 2.53 µM,0.266
same,relative viability,AZ628 + Decitabine; first compound 8 µM,0.287
same,relative viability,AZ628 + Vorinostat; first compound 0.08 µM,0.952
same,relative viability,AZ628 + Vorinostat; first compound 0.253 µM,0.698
same,relative viability,AZ628 + Vorinostat; first compound 0.8 µM,0.848
same,relative viability,AZ628 + Vorinostat; first compound 2.53 µM,0.579
same,relative viability,AZ628 + Vorinostat; first compound 8 µM,0.53
same,relative viability,[1]; first compound 0.08 µM,0.787
same,relative viability,[1]; first compound 0.8 µM,0.653
same,relative viability,[1]; first compound 2.53 µM,0.764
same,relative viability,[1]; first compound 8 µM,0.737
NCI-H1355,relative viability,AZ628 + Crizotinib; first compound 0.08 µM,1.04
same,relative viability,AZ628 + Crizotinib; first compound 0.253 µM,1.05
same,relative viability,AZ628 + Crizotinib; first compound 0.8 µM,0.971
same,relative viability,AZ628 + Crizotinib; first compound 2.53 µM,0.89
same,relative viability,AZ628 + Crizotinib; first compound 8 µM,0.768
same,relative viability,AZ628 + Decitabine; first compound 0.08 µM,0.414
same,relative viability,AZ628 + Decitabine; first compound 0.253 µM,0.322
same,relative viability,AZ628 + Decitabine; first compound 0.8 µM,0.381
same,relative viability,AZ628 + Decitabine; first compound 2.53 µM,0.344
same,relative viability,AZ628 + Decitabine; first compound 8 µM,0.265
same,relative viability,AZ628 + Vorinostat; first compound 0.08 µM,0.69
same,relative viability,AZ628 + Vorinostat; first compound 0.253 µM,0.623
same,relative viability,AZ628 + Vorinostat; first compound 0.8 µM,0.581
same,relative viability,AZ628 + Vorinostat; first compound 2.53 µM,0.598
same,relative viability,AZ628 + Vorinostat; first compound 8 µM,0.418
same,relative viability,[1]; first compound 0.08 µM,0.703
same,relative viability,[1]; first compound 0.8 µM,0.617
same,relative viability,[1]; first compound 2.53 µM,0.488
same,relative viability,[1]; first compound 8 µM,0.683
NCI-H1650,relative viability,AZ628 + Crizotinib; first compound 0.08 µM,1.13
same,relative viability,AZ628 + Crizotinib; first compound 0.253 µM,0.965
same,relative viability,AZ628 + Crizotinib; first compound 0.8 µM,0.998
same,relative viability,AZ628 + Crizotinib; first compound 2.53 µM,0.984
same,relative viability,AZ628 + Crizotinib; first compound 8 µM,0.841
same,relative viability,AZ628 + Decitabine; first compound 0.08 µM,0.586
same,relative viability,AZ628 + Decitabine; first compound 0.253 µM,0.485
same,relative viability,AZ628 + Decitabine; first compound 0.8 µM,0.429
same,relative viability,AZ628 + Decitabine; first compound 2.53 µM,0.382
same,relative viability,AZ628 + Decitabine; first compound 8 µM,0.615
same,relative viability,AZ628 + Vorinostat; first compound 0.08 µM,0.733
same,relative viability,AZ628 + Vorinostat; first compound 0.253 µM,0.763
same,relative viability,AZ628 + Vorinostat; first compound 0.8 µM,0.582
same,relative viability,AZ628 + Vorinostat; first compound 2.53 µM,0.505
same,relative viability,AZ628 + Vorinostat; first compound 8 µM,0.562
same,relative viability,[1]; first compound 0.08 µM,0.64
same,relative viability,[1]; first compound 0.8 µM,0.499
same,relative viability,[1]; first compound 2.53 µM,0.628
same,relative viability,[1]; first compound 8 µM,0.683
H3255,relative viability,AZ628 + Crizotinib; first compound 0.08 µM,0.926
same,relative viability,AZ628 + Crizotinib; first compound 0.253 µM,0.921
same,relative viability,AZ628 + Crizotinib; first compound 0.8 µM,0.949
same,relative viability,AZ628 + Crizotinib; first compound 2.53 µM,0.866
same,relative viability,AZ628 + Crizotinib; first compound 8 µM,0.704
same,relative viability,AZ628 + Decitabine; first compound 0.08 µM,0.723
same,relative viability,AZ628 + Decitabine; first compound 0.253 µM,0.504
same,relative viability,AZ628 + Decitabine; first compound 0.8 µM,0.567
same,relative viability,AZ628 + Decitabine; first compound 2.53 µM,0.51
same,relative viability,AZ628 + Decitabine; first compound 8 µM,0.379
same,relative viability,AZ628 + Vorinostat; first compound 0.08 µM,0.838
same,relative viability,AZ628 + Vorinostat; first compound 0.253 µM,0.781
same,relative viability,AZ628 + Vorinostat; first compound 0.8 µM,0.846
same,relative viability,AZ628 + Vorinostat; first compound 2.53 µM,0.87
same,relative viability,AZ628 + Vorinostat; first compound 8 µM,0.824
same,relative viability,[1]; first compound 0.08 µM,0.746
same,relative viability,[1]; first compound 0.8 µM,0.788
same,relative viability,[1]; first compound 2.53 µM,0.745
same,relative viability,[1]; first compound 8 µM,0.895
NCI-H23,relative viability,AZ628 + Crizotinib; first compound 0.08 µM,0.498
same,relative viability,AZ628 + Crizotinib; first compound 0.253 µM,0.49
same,relative viability,AZ628 + Crizotinib; first compound 0.8 µM,0.347
same,relative viability,AZ628 + Crizotinib; first compound 2.53 µM,0.493
same,relative viability,AZ628 + Crizotinib; first compound 8 µM,0.456
same,relative viability,AZ628 + Decitabine; first compound 0.08 µM,0.298
same,relative viability,AZ628 + Decitabine; first compound 0.253 µM,0.315
same,relative viability,AZ628 + Decitabine; first compound 0.8 µM,0.232
same,relative viability,AZ628 + Decitabine; first compound 2.53 µM,0.291
same,relative viability,AZ628 + Decitabine; first compound 8 µM,0.269
same,relative viability,AZ628 + Vorinostat; first compound 0.08 µM,0.709
same,relative viability,AZ628 + Vorinostat; first compound 0.253 µM,0.555
same,relative viability,AZ628 + Vorinostat; first compound 0.8 µM,0.524
same,relative viability,AZ628 + Vorinostat; first compound 2.53 µM,0.404
same,relative viability,AZ628 + Vorinostat; first compound 8 µM,0.333
same,relative viability,[1]; first compound 0.08 µM,0.62
same,relative viability,[1]; first compound 0.8 µM,0.485
same,relative viability,[1]; first compound 2.53 µM,0.663
same,relative viability,[1]; first compound 8 µM,0.716
NCI-H1755,relative viability,AZ628 + Crizotinib; first compound 0.08 µM,0.809
same,relative viability,AZ628 + Crizotinib; first compound 0.253 µM,0.818
same,relative viability,AZ628 + Crizotinib; first compound 0.8 µM,0.786
same,relative viability,AZ628 + Crizotinib; first compound 2.53 µM,0.811
same,relative viability,AZ628 + Crizotinib; first compound 8 µM,0.769
same,relative viability,AZ628 + Decitabine; first compound 0.08 µM,0.763
same,relative viability,AZ628 + Decitabine; first compound 0.253 µM,0.691
same,relative viability,AZ628 + Decitabine; first compound 0.8 µM,0.718
same,relative viability,AZ628 + Decitabine; first compound 2.53 µM,0.73
same,relative viability,AZ628 + Decitabine; first compound 8 µM,0.676
same,relative viability,AZ628 + Vorinostat; first compound 0.08 µM,0.78
same,relative viability,AZ628 + Vorinostat; first compound 0.253 µM,0.779
same,relative viability,AZ628 + Vorinostat; first compound 0.8 µM,0.84
same,relative viability,AZ628 + Vorinostat; first compound 2.53 µM,0.755
same,relative viability,AZ628 + Vorinostat; first compound 8 µM,0.679
same,relative viability,[1]; first compound 0.08 µM,0.791
same,relative viability,[1]; first compound 0.8 µM,0.606
same,relative viability,[1]; first compound 2.53 µM,0.817
same,relative viability,[1]; first compound 8 µM,1.05
NCI-H650,relative viability,AZ628 + Crizotinib; first compound 0.08 µM,0.771
same,relative viability,AZ628 + Crizotinib; first compound 0.253 µM,0.73
same,relative viability,AZ628 + Crizotinib; first compound 0.8 µM,0.553
same,relative viability,AZ628 + Crizotinib; first compound 2.53 µM,0.68
same,relative viability,AZ628 + Crizotinib; first compound 8 µM,0.599
same,relative viability,AZ628 + Decitabine; first compound 0.08 µM,0.349
same,relative viability,AZ628 + Decitabine; first compound 0.253 µM,0.396
same,relative viability,AZ628 + Decitabine; first compound 0.8 µM,0.46
same,relative viability,AZ628 + Decitabine; first compound 2.53 µM,0.335
same,relative viability,AZ628 + Decitabine; first compound 8 µM,0.336
same,relative viability,AZ628 + Vorinostat; first compound 0.08 µM,0.454
same,relative viability,AZ628 + Vorinostat; first compound 0.253 µM,0.63
same,relative viability,AZ628 + Vorinostat; first compound 0.8 µM,0.554
same,relative viability,AZ628 + Vorinostat; first compound 2.53 µM,0.673
same,relative viability,AZ628 + Vorinostat; first compound 8 µM,0.44
same,relative viability,[1]; first compound 0.08 µM,0.335
same,relative viability,[1]; first compound 0.8 µM,0.408
same,relative viability,[1]; first compound 2.53 µM,0.427
same,relative viability,[1]; first compound 8 µM,0.423
